Data: patent publication US10021881B2, “Vaporized administration of pesticides” (priority 2016, dated 2018)

Legend:
Penicillium expansum [1] = assay: In vivo assay of vaporized pyrimethanil to inhibit Penicillium expansum in apples
Procedure: An in vivo assay was used to evaluate the ability of vaporized pyrimethanil to control pathogenic infection of apples by Penicillium expansum. […] Each wound was then inoculated with 30 μL of 1×10^6 spores/mL suspension of P. expansum.
Fruits were evaluated in order to observe disease incidence (i.e., browning) and fungal sporulation diameter (both measured in millimeters, mm).

[2] = Agriphar Pyrimethanil (ISO) Safety Data Sheet; cited from earlier work
Penicillium expansum [3] = assay: Fogging versus vaporizing treatment of apples, browning of top and bottom wounds; type: in vivo; details: 2.66 g in tunnel, 72 hours at 21° C., evaluated 4 days after removal, FIG. 23
Procedure: An in vivo assay was used to evaluate the ability of vaporized pyrimethanil to control pathogenic infection of apples by Penicillium expansum as compared to fogging methods of apple treatment. Vaporized treatments of apples were performed as previous described in Examples 1-6, with the exception of using a 1 m wide×1 m high×8 m deep tunnel (FIG. 11). A 2.66 g amount of pyrimethanil was either fogged or vaporized into the tunnel. Fruits were exposed to the treatment for 72 hours at 21° C., and then removed from the tunnel and evaluated 4 days after removal in order to observe and/or determine the area of browning wounds at the top and bottom of the fruit (see FIG. 23).

[4] = type: physicochemical
Procedure: This example relates to experiments performed to determine if degradation of pyrimethanil technical compounds observed at high temperatures was due to evaporation. In the present example, seven milligrams (7 mg) of pyrimethanil compounds 1 and 2 were analyzed in air by Thermo Gravity Analysis-Mass Spectrometry (TGA-MS). The pyrimethanil samples were loaded onto a TGA platinum pan of the Q5000 TGA instrument (TA instruments) and using standard TGA test methods as follows: select gas 2 (air), data storage on, ramp at 5° C. per minute to 100° C., isothermal for 180 mins, data storage off, equilibrate at 60° C., and end method. An isothermal method was also performed according to standard methods.
The TGA furnace was closed and purged with helium, then heated from room temperature to about 300° C. at 10° C. per minute. […] An isothermal method was also performed according to standard methods.

Botrytis cinerea = assay: In vitro assay of vaporized pyrimethanil to inhibit pathogenic fungal growth (agar plates); type: cell-based; details: B. cinerea, 3 days at 23° C.
Procedure: (§1) An in vitro assay was used to evaluate the ability of pyrimethanil to vaporize in order to control the infection of various pathogenic microorganisms when applied to the plants and plant parts. For in vitro experiments, a 12-well microtiter plate, 6-well, or a 10-cm Petri plates each containing 7.5 ml, 16.5 or 22 ml volumes, respectively, of half strength Potato Dextrose Agar (PDA) were prepared. Each well or plate was inoculated with 1 microliter (μL) of 1×10^5 spores/ml of the appropriate pathogenic spore suspension (e.g., Botrytis cinerea, Penicillium expansum, Glomerella cingulata, Penicillium digitatum, Aspergillus flavus, Colletotrichum acutatum, Fusarium sambucinum, and Geotrichum candidum) by spotting the pathogen on the center of the agar well or plate. The inoculated microtiter or Petri plate was then sealed with a breathable film. One set of triplicate plates for each pathogen was placed inside the bottom of an air-tight 36-L desiccator chamber and closed with secure clamps.
(§2) Evaporation of the acetone left behind solid crystals of pyrimethanil.
(§3) The tube of the device was attached to a port on the side of the chamber that allowed airflow of the pyrimethanil vapor into the chamber. The chamber was at room temperature during administration of the pyrimethanil. The chambers were then incubated for three (3) days at 23° C. After incubation, post-treatment growth inhibition of each in vitro pathogen was measured on the inoculated plates and compared to control samples.

Glomerella cingulata = assay: as above; type: cell-based; details: G. cingulata, 3 days at 23° C.
Procedure: as §1, §2, §3

Colletotrichum acutatum = assay: as above; type: cell-based; details: C. acutatum, 3 days at 23° C.
Procedure: as §1, §2, §3

Aspergillus flavus = assay: as above; type: cell-based; details: A. flavus, 3 days at 23° C.
Procedure: as §1, §2, §3

Penicillium digitatum = assay: as above; type: cell-based; details: P. digitatum, 3 days at 23° C.
Procedure: as §1, §2, §3

Penicillium expansum [5] = assay: as above; type: cell-based; details: P. expansum, 3 days at 23° C.
Procedure: as §1, §2, §3

Geotrichum candidum = assay: as above; type: cell-based; details: G. candidum, 3 days at 23° C.
Procedure: as §1, §2, §3

Fusarium sambucinum = assay: as above; type: cell-based; details: F. sambucinum, 3 days at 23° C.
Procedure: as §1, §2, §3

[6] = 0.04 mg/L, Day 0 (after 3 days at 21° C.)
[7] = 0.04 mg/L, Day 1 (after 3 days at 21° C.)
[8] = 0.04 mg/L, Day 2 (after 3 days at 21° C.)
[9] = 0.04 mg/L, Day 3 (after 3 days at 21° C.)
[10] = 0.2 mg/L, Day 0 (after 3 days at 21° C.)
[11] = 0.2 mg/L, Day 1 (after 3 days at 21° C.)
[12] = 0.2 mg/L, Day 2 (after 3 days at 21° C.)
[13] = 0.2 mg/L, Day 3 (after 3 days at 21° C.)
[14] = 1 mg/L, Day 0 (after 3 days at 21° C.)
[15] = 1 mg/L, Day 1 (after 3 days at 21° C.)
[16] = 1 mg/L, Day 2 (after 3 days at 21° C.)
[17] = 1 mg/L, Day 3 (after 3 days at 21° C.)

For Cc1cc(C)nc(Nc2ccccc2)n1 [pyrimethanil, 4,6-Dimethyl-N-phenylpyrimidin-2-amine], the “Browning (mm)” value (Penicillium expansum [1]; [6]) was 10.6 mm, the “Fungal Sporulation (mm)” value (Penicillium expansum [1]; [6]) was 2.6 mm and the “Browning (mm)” value (Penicillium expansum [1]; [7]) was 16.2 mm. The “Fungal Sporulation (mm)” value (Penicillium expansum [1]; [7]) was 2.1 mm, the “Browning (mm)” value (Penicillium expansum [1]; [8]) was 23.1 mm and the “Fungal Sporulation (mm)” value (Penicillium expansum [1]; [8]) was 2.8 mm. For the same compound, the “Browning (mm)” value (Penicillium expansum [1]; [9]) was 28.8 mm, the “Fungal Sporulation (mm)” value (Penicillium expansum [1]; [9]) was 3.1 mm and the “Browning (mm)” value (Penicillium expansum [1]; [10]) was 5.3 mm. The “Fungal Sporulation (mm)” value (Penicillium expansum [1]; [10]) was 0.3 mm, the “Browning (mm)” value (Penicillium expansum [1]; [11]) was 8.1 mm and the “Fungal Sporulation (mm)” value (Penicillium expansum [1]; [11]) was 0.8 mm. The “Browning (mm)” value (Penicillium expansum [1]; [12]) was 12.7 mm, the “Fungal Sporulation (mm)” value (Penicillium expansum [1]; [12]) was 1.4 mm and the “Browning (mm)” value (Penicillium expansum [1]; [13]) was 16.2 mm. For the same compound, the “Fungal Sporulation (mm)” value (Penicillium expansum [1]; [13]) was 2.6 mm, the “Browning (mm)” value (Penicillium expansum [1]; [14]) was 3.4 mm and the “Fungal Sporulation (mm)” value (Penicillium expansum [1]; [14]) was 0.1 mm. For the same compound, the “Browning (mm)” value (Penicillium expansum [1]; [15]) was 5.6 mm, the “Fungal Sporulation (mm)” value (Penicillium expansum [1]; [15]) was 0.7 mm and the “Browning (mm)” value (Penicillium expansum [1]; [16]) was 8.8 mm. The “Fungal Sporulation (mm)” value (Penicillium expansum [1]; [16]) was 0.8 mm, the “Browning (mm)” value (Penicillium expansum [1]; [17]) was 11.4 mm and the “Fungal Sporulation (mm)” value (Penicillium expansum [1]; [17]) was 1.6 mm. For the same compound, the “known thermal decomposition range” value [2] was 189.54-344.74 °C, the “browning at the bottom of the fruit, vaporized compared with fogged” value (Penicillium expansum [3]) was “much less area (mm) of browning” and the “browning on the top of the fruit, vaporized compared with fogged” value (Penicillium expansum [3]) was “comparable browning”. The thermal degradation [4] was “no thermal degradation”, the “Mycelial Growth Inhibition (%)” value (Botrytis cinerea; 0.1 mg/L headspace) was 91.9% and the “Mycelial Growth Inhibition (%)” value (Botrytis cinerea; 0.3 mg/L headspace) was 92.1%. For the same compound, the “Mycelial Growth Inhibition (%)” value (Botrytis cinerea; 1 mg/L headspace) was 95.2%, the “Mycelial Growth Inhibition (%)” value (Glomerella cingulata; 0.1 mg/L headspace) was 31.5% and the “Mycelial Growth Inhibition (%)” value (Glomerella cingulata; 0.3 mg/L headspace) was 62.1%. The “Mycelial Growth Inhibition (%)” value (Glomerella cingulata; 1 mg/L headspace) was 77.3%, the “Mycelial Growth Inhibition (%)” value (Colletotrichum acutatum; 0.1 mg/L headspace) was 100.0% and the “Mycelial Growth Inhibition (%)” value (Colletotrichum acutatum; 0.3 mg/L headspace) was 90.0%. The “Mycelial Growth Inhibition (%)” value (Colletotrichum acutatum; 1 mg/L headspace) was 89.7%, the “Mycelial Growth Inhibition (%)” value (Aspergillus flavus; 0.1 mg/L headspace) was 100.0% and the “Mycelial Growth Inhibition (%)” value (Aspergillus flavus; 0.3 mg/L headspace) was 100.0%. The “Mycelial Growth Inhibition (%)” value (Aspergillus flavus; 1 mg/L headspace) was 100.0%, the “Mycelial Growth Inhibition (%)” value (Penicillium digitatum; 0.1 mg/L headspace) was 100.0% and the “Mycelial Growth Inhibition (%)” value (Penicillium digitatum; 0.3 mg/L headspace) was 100.0%. For the same compound, the “Mycelial Growth Inhibition (%)” value (Penicillium digitatum; 1 mg/L headspace) was 100.0%, the “Mycelial Growth Inhibition (%)” value (Penicillium expansum [5]; 0.1 mg/L headspace) was 92.4% and the “Mycelial Growth Inhibition (%)” value (Penicillium expansum [5]; 0.3 mg/L headspace) was 100.0%. The “Mycelial Growth Inhibition (%)” value (Penicillium expansum [5]; 1 mg/L headspace) was 100.0%, the “Mycelial Growth Inhibition (%)” value (Geotrichum candidum; 0.1 mg/L headspace) was 57.8% and the “Mycelial Growth Inhibition (%)” value (Geotrichum candidum; 0.3 mg/L headspace) was 73.1%. The “Mycelial Growth Inhibition (%)” value (Geotrichum candidum; 1 mg/L headspace) was 75.2%, the “Mycelial Growth Inhibition (%)” value (Fusarium sambucinum; 0.1 mg/L headspace) was 58.3% and the “Mycelial Growth Inhibition (%)” value (Fusarium sambucinum; 0.3 mg/L headspace) was 89.4%. For the same compound, the “Mycelial Growth Inhibition (%)” value (Fusarium sambucinum; 1 mg/L headspace) was 92.2%.
